In the supplement of paper PMC8671470:

These molecules were tested on NOMO-1 (assay: cell viability (% survival relative to DMSO control, bortezomib = 0%); higher = less cytotoxic). Conditions: 10000 nM; 72 h.
Procedure, shortened: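 Fifteen myeloid leukaemia cell lines were exposed to compounds at 1, 10, 100, 1000 or 10000 nM in 384-well plates for 72 h at 37 °C and 5% CO2. Viability was read by CellTiter-Glo luminescence and normalised, with vehicle as 100% and a 10 µM positive control as 0%. Values are percent survival averaged over duplicates.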
CC(C)CC(=O)N[C@H](C(=O)N[C@H](C(=O)N[C@@H](CC(C)C)[C@@H](O)CC(=O)N[C@@H](C)C(=O)N[C@@H](CC(C)C)[C@@H](O)CC(=O)O)C(C)C)C(C)C [Pepstatin A] was tested, and the cell viability was 102%. With Cc1cccc(Nc2cc(Cl)nc(SCC(=O)O)n2)c1C [Pirinixic acid] the cell viability was 96.8%. Molecule C[C@]12C=CC(=O)C=C1CC[C@@H]1[C@@H]2[C@@H](O)C[C@@]2(C)[C@H]1CC[C@]2(O)C(=O)CO [Prednisolone] has a cell viability of 87.3%. Work on N[C@@H](CC(=O)N1CCn2c(nnc2C(F)(F)F)C1)Cc1cc(F)c(F)cc1F [Sitagliptin] yielded a cell viability of 100%. In the case of CCCc1nc(C)c2c(=O)nc(-c3cc(S(=O)(=O)N4CCN(CC)CC4)ccc3OCC)[nH]n12 [Vardenafil], the cell viability is reported as 93.1%. CCc1c(C(=O)C(N)=O)c2c(OCC(=O)O)cccc2n1Cc1ccccc1 [Varespladib] showed a cell viability of 95.2%. For N#Cc1ccc(N(Cc2ccc(Br)cc2)n2cnnc2)cc1 [YM511], the cell viability was 96.2%. For N#C/C(=C\c1ccc(O)cc1)C(=O)O [alpha-cyano-4-hydroxycinnamic acid], the cell viability was 97.3%.

Each molecule was assayed on myeloid leukemia patient primary cells Pat.14 (assay: area under dose-response curve (viability, 1 nM-10 uM) (fraction (0-1)); higher = more sensitive). Conditions: 72 h.
Description: (§1)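 AUC (0–1, higher = more sensitive) of the 5-point dose–response (1 nM–10 µM, 72 h, CellTiter-Glo) in primary AML/CML patient mononuclear cells. 0.030103 is the floor for inactive compounds.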
C[C@]12C=CC(=O)C=C1CC[C@@H]1[C@@H]2[C@@H](O)C[C@@]2(C)[C@H]1CC[C@]2(O)C(=O)CO [Prednisolone] was tested, and the “area under dose-response curve” value was less than 0.0301.

The molecules below were run on myeloid leukemia patient primary cells Pat.8 in the same assay as above. Conditions: 72 h.
Description: as §1
With C[C@]12C=CC(=O)C=C1CC[C@@H]1[C@@H]2[C@@H](O)C[C@@]2(C)[C@H]1CC[C@]2(O)C(=O)CO [Prednisolone] the “area under dose-response curve” value was 0.0885.

What follows are molecules tested on myeloid leukemia patient primary cells Pat.10 in the same assay as above. Conditions: 72 h.
Description: as §1
For C[C@]12C=CC(=O)C=C1CC[C@@H]1[C@@H]2[C@@H](O)C[C@@]2(C)[C@H]1CC[C@]2(O)C(=O)CO [Prednisolone], the “area under dose-response curve” value was 0.678.

Each molecule was assayed on myeloid leukemia patient primary cells Pat.5 in the same assay as above. Conditions: 72 h.
Description: as §1
For C[C@]12C=CC(=O)C=C1CC[C@@H]1[C@@H]2[C@@H](O)C[C@@]2(C)[C@H]1CC[C@]2(O)C(=O)CO [Prednisolone], the “area under dose-response curve” value was less than 0.0301.

The molecules below were run on myeloid leukemia patient primary cells Pat.13 in the same assay as above. Conditions: 72 h.
Description: as §1
For C[C@]12C=CC(=O)C=C1CC[C@@H]1[C@@H]2[C@@H](O)C[C@@]2(C)[C@H]1CC[C@]2(O)C(=O)CO [Prednisolone], the “area under dose-response curve” value was less than 0.0301.

Each molecule was assayed on myeloid leukemia patient primary cells Pat.1 in the same assay as above. Conditions: 72 h.
Description: as §1
In the case of C[C@]12C=CC(=O)C=C1CC[C@@H]1[C@@H]2[C@@H](O)C[C@@]2(C)[C@H]1CC[C@]2(O)C(=O)CO [Prednisolone], the “area under dose-response curve” value is reported as less than 0.0301.

The molecules below were run on myeloid leukemia patient primary cells Pat.9 in the same assay as above. Conditions: 72 h.
Description: as §1
With C[C@]12C=CC(=O)C=C1CC[C@@H]1[C@@H]2[C@@H](O)C[C@@]2(C)[C@H]1CC[C@]2(O)C(=O)CO [Prednisolone] the “area under dose-response curve” value was less than 0.0301.

These molecules were tested on myeloid leukemia patient primary cells Pat.12 in the same assay as above. Conditions: 72 h.
Description: as §1
With C[C@]12C=CC(=O)C=C1CC[C@@H]1[C@@H]2[C@@H](O)C[C@@]2(C)[C@H]1CC[C@]2(O)C(=O)CO [Prednisolone] the “area under dose-response curve” value was less than 0.0301.

What follows are molecules tested on myeloid leukemia patient primary cells Pat.7 in the same assay as above. Conditions: 72 h.
Description: as §1
For C[C@]12C=CC(=O)C=C1CC[C@@H]1[C@@H]2[C@@H](O)C[C@@]2(C)[C@H]1CC[C@]2(O)C(=O)CO [Prednisolone], the “area under dose-response curve” value was less than 0.0301.

These molecules were tested on myeloid leukemia patient primary cells Pat.3 in the same assay as above. Conditions: 72 h.
Description: as §1
C[C@]12C=CC(=O)C=C1CC[C@@H]1[C@@H]2[C@@H](O)C[C@@]2(C)[C@H]1CC[C@]2(O)C(=O)CO [Prednisolone] was tested, and the “area under dose-response curve” value was 0.227.

Each molecule was assayed on myeloid leukemia patient primary cells Pat.2 (assay: cell viability (% survival relative to DMSO control); higher = less cytotoxic). Conditions: 1 nM; 72 h.
Procedure, shortened: (§2)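 Mononuclear cells from patients with AML or CML were thawed, purified on Ficoll and placed in RPMI 1640 with 10% FBS at 10,000 cells/well on 384-well plates. The plates came pre-printed with 70 compounds at five tenfold concentrations spanning 1–10,000 nM, in duplicate, and cells were exposed for 72 h. CellTiter-Glo gave viability, scaled between DMSO wells and wells with 10 μM proteasome inhibitor. Where reported, area under the curve was obtained from log-logistic fits with four parameters using the drc and PharmacoGx R packages.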
In the case of C[C@]12C=CC(=O)C=C1CC[C@@H]1[C@@H]2[C@@H](O)C[C@@]2(C)[C@H]1CC[C@]2(O)C(=O)CO [Prednisolone], the cell viability is reported as 95.6%.

Same assay, conditions: 10 nM; 72 h
C[C@]12C=CC(=O)C=C1CC[C@@H]1[C@@H]2[C@@H](O)C[C@@]2(C)[C@H]1CC[C@]2(O)C(=O)CO [Prednisolone] was tested, and the cell viability was 86.1%.

Same assay, conditions: 100 nM; 72 h
In the case of C[C@]12C=CC(=O)C=C1CC[C@@H]1[C@@H]2[C@@H](O)C[C@@]2(C)[C@H]1CC[C@]2(O)C(=O)CO [Prednisolone], the cell viability is reported as 87.2%.

Same assay, conditions: 1000 nM; 72 h
In the case of C[C@]12C=CC(=O)C=C1CC[C@@H]1[C@@H]2[C@@H](O)C[C@@]2(C)[C@H]1CC[C@]2(O)C(=O)CO [Prednisolone], the cell viability is reported as 77.3%.

Same assay, conditions: 10000 nM; 72 h
C[C@]12C=CC(=O)C=C1CC[C@@H]1[C@@H]2[C@@H](O)C[C@@]2(C)[C@H]1CC[C@]2(O)C(=O)CO [Prednisolone] was tested, and the cell viability was 76.4%.

What follows are molecules tested on myeloid leukemia patient primary cells Pat.1 in the same assay as above. Conditions: 1 nM; 72 h.
Procedure, shortened: as §2
With C[C@]12C=CC(=O)C=C1CC[C@@H]1[C@@H]2[C@@H](O)C[C@@]2(C)[C@H]1CC[C@]2(O)C(=O)CO [Prednisolone] the cell viability was 83.7%.

Same assay, conditions: 10 nM; 72 h
Work on C[C@]12C=CC(=O)C=C1CC[C@@H]1[C@@H]2[C@@H](O)C[C@@]2(C)[C@H]1CC[C@]2(O)C(=O)CO [Prednisolone] yielded a cell viability of 69.7%.

Same assay, conditions: 100 nM; 72 h
For C[C@]12C=CC(=O)C=C1CC[C@@H]1[C@@H]2[C@@H](O)C[C@@]2(C)[C@H]1CC[C@]2(O)C(=O)CO [Prednisolone], the cell viability was greater than 100%.

Same assay, conditions: 1000 nM; 72 h
C[C@]12C=CC(=O)C=C1CC[C@@H]1[C@@H]2[C@@H](O)C[C@@]2(C)[C@H]1CC[C@]2(O)C(=O)CO [Prednisolone] gave a cell viability greater than 100%.

Same assay, conditions: 10000 nM; 72 h
C[C@]12C=CC(=O)C=C1CC[C@@H]1[C@@H]2[C@@H](O)C[C@@]2(C)[C@H]1CC[C@]2(O)C(=O)CO [Prednisolone] showed a cell viability of 97.2%.

Each molecule was assayed on myeloid leukemia patient primary cells Pat.7 in the same assay as above. Conditions: 1 nM; 72 h.
Procedure, shortened: as §2
C[C@]12C=CC(=O)C=C1CC[C@@H]1[C@@H]2[C@@H](O)C[C@@]2(C)[C@H]1CC[C@]2(O)C(=O)CO [Prednisolone] gave a cell viability of 66.5%.

Same assay, conditions: 10 nM; 72 h
For C[C@]12C=CC(=O)C=C1CC[C@@H]1[C@@H]2[C@@H](O)C[C@@]2(C)[C@H]1CC[C@]2(O)C(=O)CO [Prednisolone], the cell viability was 60.7%.

Same assay, conditions: 100 nM; 72 h
For C[C@]12C=CC(=O)C=C1CC[C@@H]1[C@@H]2[C@@H](O)C[C@@]2(C)[C@H]1CC[C@]2(O)C(=O)CO [Prednisolone], the cell viability was 84.5%.

Same assay, conditions: 1000 nM; 72 h
Work on C[C@]12C=CC(=O)C=C1CC[C@@H]1[C@@H]2[C@@H](O)C[C@@]2(C)[C@H]1CC[C@]2(O)C(=O)CO [Prednisolone] yielded a cell viability of 83.6%.

Same assay, conditions: 10000 nM; 72 h
For C[C@]12C=CC(=O)C=C1CC[C@@H]1[C@@H]2[C@@H](O)C[C@@]2(C)[C@H]1CC[C@]2(O)C(=O)CO [Prednisolone], the cell viability was 83.4%.

These molecules were tested on myeloid leukemia patient primary cells Pat.15 in the same assay as above. Conditions: 1 nM; 72 h.
Procedure, shortened: as §2
C[C@]12C=CC(=O)C=C1CC[C@@H]1[C@@H]2[C@@H](O)C[C@@]2(C)[C@H]1CC[C@]2(O)C(=O)CO [Prednisolone] was tested, and the cell viability was 81.1%.

Same assay, conditions: 10 nM; 72 h
Molecule C[C@]12C=CC(=O)C=C1CC[C@@H]1[C@@H]2[C@@H](O)C[C@@]2(C)[C@H]1CC[C@]2(O)C(=O)CO [Prednisolone] has a cell viability of 88.6%.

Same assay, conditions: 100 nM; 72 h
C[C@]12C=CC(=O)C=C1CC[C@@H]1[C@@H]2[C@@H](O)C[C@@]2(C)[C@H]1CC[C@]2(O)C(=O)CO [Prednisolone] was tested, and the cell viability was 86.1%.

Same assay, conditions: 1000 nM; 72 h
C[C@]12C=CC(=O)C=C1CC[C@@H]1[C@@H]2[C@@H](O)C[C@@]2(C)[C@H]1CC[C@]2(O)C(=O)CO [Prednisolone] was tested, and the cell viability was 75.4%.

Same assay, conditions: 10000 nM; 72 h
C[C@]12C=CC(=O)C=C1CC[C@@H]1[C@@H]2[C@@H](O)C[C@@]2(C)[C@H]1CC[C@]2(O)C(=O)CO [Prednisolone] was tested, and the cell viability was 61.2%.
